One assay relates to male mice. The assay can be described thus: Inhibition of aggression in isolated male mice. Type of assay: in vivo. To be noted: Mus musculus, 0.5 h, half an hour. On the procedure:
The compounds of the invention have an antiaggressive effect on mice. Aggression inhibition was determined on male mice (NMR from Moellegard, Denmark) with weights of 20-22 g. The mice are kept isolated for three weeks in plastic cages and when two mice are subsequently put into the same cage, they will spontaneously and almost instantaneously start to fight.
J. Pharmacol., 1978, 47, 45-49. The compounds of this invention were administered subcutaneously and orally and the anti-aggressive effect half an hour later was determined. The ED50 values were determined from the test results. These test results are listed in Table 2 for compounds of this invention and also for several known tranquilizers.

Assay [1] deals with pentazole-induced convulsions. Kind of assay: Antagonism of pentazole-induced convulsions. Type of assay: in vivo. The following applies: sc. The source says: Moreover, the antagonism of pentazole-induced convulsions was investigated.
The test has been performed according to known test models in pharmacology,e.g., described in R. A. Turner, Screening Methods in Pharmacology, Academic Press, N.Y. and London 1965, esp. p. 164 ff., or, Woodbury, P. M., Perry, I. K. and Schmidt, R. P. Antiepileptic Drugs, Raven Press, N.Y. 1972.

Assay [2] has as its target benzodiazepine receptor. Kind of assay: Displacement of 3H-flunitrazepam from benzodiazepine receptors in vitro (IC50). Type of assay: binding. The following applies: rat forebrain, 3H-flunitrazepam 1.0 nM, 0° C. The source says: For example, it is known that certain locations in the central nervous system of vertebrates have a high specific affinity for bonding 1,4 and 1,5-benzodiazepines. (See, e.g., R. F. Squires & C. Braestrup, Nature [London] 266 [1977], 734, which is incorporated by reference herein). These locations are called benzodiazepine receptors.
This displacement activity of the compounds of this invention has been determined by measuring IC50 and ED50 values. The IC50 value is the concentration which causes a 50% displacement of the specific binding of ^3 H-flunitrazepam (1.0 nM, 0° C.) in samples with a total volume of 0.55 ml of a suspension of brain membrane, e.g., from rats.
The displacement test is carried out as follows:
0.5 ml of a suspension of untreated rat forebrain in 25 mM KH2 PO4, at a pH of 7.1 (5-10 mg of tissue per sample) were incubated with ^3 H-diazepam (specific activity 14.4 Ci/millimole, 1.9 nM) or ^3 H-flunitrazepam (specific activity 87 Ci/millimole, 1.0 nM) for 40-60 minutes at 0° C. After incubation, the suspension is filtered through a glass frit, the residue is washed twice with a cold buffer solution and the radioactivity is measured by scintillation counting.
The test is then repeated, except prior to addition of the radioactively marked benzodiazepine, a given amount or an excess amount of the compound whose displacement activity is to be ascertained, is added. The IC50 value can then be computed from the test results obtained.
(In a radioligand displacement assay an active substance lowers the binding of a labelled ligand.)

Assay [3] deals with benzodiazepine receptor. The assay can be described thus: In vivo inhibition of 3H-flunitrazepam binding to the benzodiazepine receptor in living brain (ED50). To be noted: mice, subcutaneous, 3H-flunitrazepam i.v. 15 min later.
[4] abbreviates: sc, s.c., read-out: Inhibition of Aggression ED50, s.c.
Setting [5] is: clonic, read-out: Antagonism of pentazole-induced convulsions, ED50 s.c., Clonic convulsions.
Where [6] appears, read: death, read-out: Antagonism of pentazole-induced convulsions, ED50 s.c., Death.
Where [7] appears, read: tonic, read-out: Antagonism of pentazole-induced convulsions, ED50 s.c., Tonic convulsions.
The mark [8] stands for this setting: po, p.o., read-out: Inhibition of Aggression ED50, p.o.

SMILES strings stand for the structures. Like-named read-outs stand apart in the source and are kept apart here. Bounds are passed on as bounds.

As usually defined, the ED50 is the dose that gives a 50% effect, or the effect in half of the subjects. As to `CC(=O)c1cc2c(cn1)[nH]c1ccccc12` [COCH3, 3-acetyl-beta-carboline], the ED50 was 35 mg/kg in the assay with male mice (setting [4]), over 100 mg/kg in assay [1] (setting [5]), 75 mg/kg in assay [1] (setting [6]) and 100 mg/kg in assay [1] (setting [7]). Besides, at benzodiazepine receptor [2], the “In vitro IC50, inhibition of 3H flunitrazepam binding (Affinity for the benzodiazepine receptor)” value (shortened to “In vitro IC50, inhibition”) is 0.0224 µg/mL. In addition, the “In vivo ED50, inhibition of 3H flunitrazepam binding (Affinity for the benzodiazepine receptor)” value (“In vivo ED50, inhibition” for short) in the assay with benzodiazepine receptor [3] is given as 100 mg/kg.
Take `C(=NN1CCOCC1)c1cc2c(cn1)[nH]c1ccccc12` [drawing 44]: the ED50 in assay [1] (setting [5]) was determined as 100 mg/kg; in assay [1] (setting [6]) it was 50 mg/kg; in assay [1] (setting [7]), 50 mg/kg.
As for `CC(=NN(C)C)c1cc2c(cn1)[nH]c1ccccc12` [drawing 42], the ED50 is over 100 mg/kg in assay [1] (setting [5]), 75 mg/kg in assay [1] (setting [6]) and 75 mg/kg in assay [1] (setting [7]).
With `CON=Cc1cc2c(cn1)[nH]c1ccccc12` [CHNOCH3, beta-carboline-3-carboxaldehyde-oxime-methylether], in the assay on male mice (setting [4]), the median effective dose (ED50) was found to be 15 mg/kg. The “In vitro IC50, inhibition” value on benzodiazepine receptor [2] was 0.0513 µg/mL. Further, the “In vivo ED50, inhibition” value in the assay with benzodiazepine receptor [3] is 16 mg/kg.
As for `CN(C)N=Cc1cc2c(cn1)[nH]c1ccc(S(=O)(=O)N(C)C)cc12` [drawing 46], the ED50 in assay [1] (setting [5]) is 20 mg/kg; in assay [1] (setting [6]), 15 mg/kg; in assay [1] (setting [7]), 15 mg/kg.
Turning to `CN(C)S(=O)(=O)c1ccc2[nH]c3cnc(C=NN4CCCC4)cc3c2c1` [drawing 48], the ED50 came out at 50 mg/kg in assay [1] (setting [5]), 20 mg/kg in assay [1] (setting [6]) and 20 mg/kg in assay [1] (setting [7]).
Turning to `C(=NN1CCCCC1)c1cc2c(cn1)[nH]c1ccccc12` [drawing 43], the ED50 was over 100 mg/kg in assay [1] (setting [5]), over 100 mg/kg in assay [1] (setting [6]) and 50 mg/kg in assay [1] (setting [7]).
Consider `CCN(CC)N=Cc1cc2c(cn1)[nH]c1ccccc12` [drawing 41], for which the figures for the ED50 in assay [1] (setting [5]), in assay [1] (setting [6]) and in assay [1] (setting [7]) were over 100 mg/kg, 100 mg/kg and 100 mg/kg, respectively.
Take `CCOC(=O)Cc1cc2c(cn1)[nH]c1ccccc12` [CH2 COOC2 H5]: the ED50 in the assay with male mice (setting [4]) was 75 mg/kg. For the same molecule, the “In vitro IC50, inhibition” value on benzodiazepine receptor [2] was 0.363 µg/mL. Besides, in the assay on benzodiazepine receptor [3], the “In vivo ED50, inhibition” value is over 250 mg/kg.
Consider `CCOC(=O)C=Cc1cc2c(cn1)[nH]c1ccccc12` [CHCHCOOC2 H5, ethyl-3-(3-beta-carbolinyl)-acrylate], for which the ED50 with male mice (setting [4]) was 4 mg/kg; in assay [1] (setting [5]), over 100 mg/kg; in assay [1] (setting [6]), 35 mg/kg; in assay [1] (setting [7]), 100 mg/kg. Moreover, the “In vitro IC50, inhibition” value at benzodiazepine receptor [2] amounted to 0.0589 µg/mL. Further, in the assay on benzodiazepine receptor [3], the “In vivo ED50, inhibition” value is given as over 250 mg/kg.
For the molecule `O=Cc1cc2c(cn1)[nH]c1ccccc12` [CHO, beta-carboline-3-carboxaldehyde], the ED50 in the assay with male mice (setting [4]) turned out to be 8 mg/kg. The “In vitro IC50, inhibition” value on benzodiazepine receptor [2] worked out at 0.0302 µg/mL. Moreover, the “In vivo ED50, inhibition” value in the assay on benzodiazepine receptor [3] is over 250 mg/kg.
Regarding `C(=NN1CCCC1)c1cc2c(cn1)[nH]c1ccccc12` [drawing 45], the values for the ED50 in assay [1] (setting [5]), in assay [1] (setting [6]) and in assay [1] (setting [7]) were 20 mg/kg, 15 mg/kg and 15 mg/kg, respectively.
In the case of `CN(C)N=Cc1cc2c(cn1)[nH]c1ccccc12` [drawing 40], the ED50 in the assay with male mice (setting [8]) is at most 50 mg/kg; in the assay with male mice (setting [4]), 7.5 mg/kg; in assay [1] (setting [5]) it was 20 mg/kg; in assay [1] (setting [6]) it was under 10 mg/kg; in assay [1] (setting [7]), under 10 mg/kg.
Turning to `CC(=NO)c1cc2c(cn1)[nH]c1ccccc12` [drawing 39], the ED50 in the assay with male mice (setting [8]) amounted to 75 mg/kg.

Source of the values: patent US4596808A, “Pharmacologically active 3-substituted beta-carbolines useful as tranquilizers” (Schering Aktiengesellschaft, priority 1980, dated 1986).
